ChEMBL document CHEMBL5634077, “Recent advances in 1,2,3- and 1,2,4-triazole hybrids as antimicrobials and their SAR: A critical review” (2023)
Values after ≈ are worked out from the molar mass of the structure shown. Values belong to the compound of their own block, whether it stands above or below them.

Columns and labels:
Format in all cases: functional
[1] = system: Staphylococcus aureus; test: Antibacterial activity against Staphylococcus aureus assessed as reduction in microbial growth incubated for 18 to 24 hrs by serial dilution method; settings: time 18-24 hrs
[2] = system: Staphylococcus aureus; test: Antibacterial activity against methicillin-resistant Staphylococcus aureus assessed as reduction in microbial growth incubated for 18 to 24 hrs by serial dilution method; settings: time 18-24 hrs
[3] = system: Staphylococcus aureus; test: Antibacterial activity against methicillin-sensitive Staphylococcus aureus assessed as reduction in microbial growth incubated for 18 to 24 hrs by serial dilution method; settings: time 18-24 hrs
[4] = system: Escherichia coli; test: Antibacterial activity against Escherichia coli MTCC 16521 assessed as reduction in microbial growth
[5] = system: Candida albicans; test: Antifungal activity against Candida albicans MTCC 227 assessed as inhibition of fungal growth
[6] = system: Bacillus subtilis; test: Antibacterial activity against Bacillus subtilis MTCC 441 assessed as reduction in microbial growth
[7] = system: Aspergillus niger; test: Antifungal activity against Aspergillus niger MTCC 8189 assessed as inhibition of fungal growth
[8] = system: Staphylococcus epidermidis; test: Antibacterial activity against Staphylococcus epidermidis assessed as reduction in microbial growth
[9] = system: Staphylococcus aureus; test: Antibacterial activity against Staphylococcus aureus assessed as inhibition of bacterial growth by microdilution method
[10] = system: Staphylococcus epidermidis; test: Antibacterial activity against Staphylococcus epidermidis assessed as inhibition of bacterial growth by microdilution method
[11] = system: Bacillus subtilis; test: Antibacterial activity against Bacillus subtilis assessed as inhibition of bacterial growth by microdilution method

Compound: COc1c(N2CCN(C(=O)Cn3cc(CN4C(=O)C(=O)c5cc(C)ccc54)nn3)C(C)C2)c(F)cc2c(=O)c(C(=O)O)cn(C3CC3)c12 (stereo not drawn)
MIC [1]: 0.03 µg/mL
MIC [2]: 0.03 µg/mL
MIC [3]: 0.03 µg/mL

Compound: COc1c(N2CCN(C(=O)Cn3cc(CN4C(=O)C(=O)c5cc(F)ccc54)nn3)C(C)C2)c(F)cc2c(=O)c(C(=O)O)cn(C3CC3)c12 (stereo not drawn)
MIC [1]: 0.03 µg/mL
MIC [2]: 0.03 µg/mL
MIC [3]: 0.03 µg/mL

Compound: CO/N=C1/C(=O)N(Cc2cn(CC(=O)N3CCN(c4c(F)cc5c(=O)c(C(=O)O)cn(C6CC6)c5c4OC)CC3C)nn2)c2ccc(F)cc21 (stereo not drawn)
MIC [1]: 0.03 µg/mL
MIC [2]: 0.03 µg/mL
MIC [3]: 0.03 µg/mL

Compound: CCO/N=C1/C(=O)N(Cc2cn(CC(=O)N3CCN(c4c(F)cc5c(=O)c(C(=O)O)cn(C6CC6)c5c4OC)CC3C)nn2)c2ccc(C)cc21 (stereo not drawn)
MIC [1]: 0.03 µg/mL
MIC [2]: 0.03 µg/mL
MIC [3]: 0.03 µg/mL

Compound: CCO/N=C1/C(=O)N(Cc2cn(CC(=O)N3CCN(c4c(F)cc5c(=O)c(C(=O)O)cn(C6CC6)c5c4OC)CC3C)nn2)c2ccccc21 (stereo not drawn)
MIC [1]: 0.03 µg/mL
MIC [2]: 0.03 µg/mL
MIC [3]: 0.03 µg/mL

Compound: COc1c(N2CCN(C(=O)Cn3cc(CN4C(=O)C(=O)c5cc(Cl)cc(Cl)c54)nn3)C(C)C2)c(F)cc2c(=O)c(C(=O)O)cn(C3CC3)c12 (stereo not drawn)
MIC [1]: 0.03 µg/mL
MIC [2]: 0.03 µg/mL
MIC [3]: 0.03 µg/mL

Compound: COc1c(N2CCN(C(=O)Cn3cc(CN4C(=O)C(=O)c5ccccc54)nn3)C(C)C2)c(F)cc2c(=O)c(C(=O)O)cn(C3CC3)c12 (stereo not drawn)
MIC [1]: 0.03 µg/mL
MIC [2]: 0.03 µg/mL
MIC [3]: 0.03 µg/mL

Compound: CCO/N=C1/C(=O)N(Cc2cn(CC(=O)N3CCN(c4c(F)cc5c(=O)c(C(=O)O)cn(C6CC6)c5c4OC)CC3C)nn2)c2ccc(F)cc21 (stereo not drawn)
MIC [1]: 0.03 µg/mL
MIC [2]: 0.03 µg/mL
MIC [3]: 0.03 µg/mL

Compound: Fc1cc(-n2cc(CSc3nc4ccccc4o3)nn2)ccc1N1CCOCC1
MIC [9]: 25 µg/mL (≈ 60.8 µM)
MIC [10]: 6.25 µg/mL (≈ 15.2 µM)
MIC [11]: 12.5 µg/mL (≈ 30.4 µM)

Compound: CO/N=C1/C(=O)N(Cc2cn(CC(=O)N3CCN(c4c(F)cc5c(=O)c(C(=O)O)cn(C6CC6)c5c4OC)CC3C)nn2)c2c(F)cccc21 (stereo not drawn)
MIC [1]: 0.03 µg/mL
MIC [2]: 0.03 µg/mL
MIC [3]: 0.03 µg/mL

Compound: COc1c(N2CCN(C(=O)Cn3cc(CN4C(=O)/C(=N/O)c5cc(C)ccc54)nn3)C(C)C2)c(F)cc2c(=O)c(C(=O)O)cn(C3CC3)c12 (stereo not drawn)
MIC [1]: 0.03 µg/mL
MIC [2]: 0.03 µg/mL
MIC [3]: 0.03 µg/mL

Compound: O=C1CS(=O)(=O)c2ccccc2N1Cc1cn(-c2ccc(N3CCOCC3)c(F)c2)nn1
MIC [9]: 12.5 µg/mL (≈ 27.3 µM)
MIC [10]: 50 µg/mL (≈ 109 µM)
MIC [11]: 3.12 µg/mL (≈ 6.82 µM)

Compound: O=C1COc2cc(Br)ccc2N1Cc1cn(-c2ccc(N3CCOCC3)c(F)c2)nn1
MIC [9]: 25 µg/mL (≈ 51.2 µM)
MIC [10]: 25 µg/mL (≈ 51.2 µM)
MIC [11]: 25 µg/mL (≈ 51.2 µM)

Compound: COc1c(N2CCN(C(=O)Cn3cc(CN4C(=O)/C(=N/O)c5cc(F)ccc54)nn3)C(C)C2)c(F)cc2c(=O)c(C(=O)O)cn(C3CC3)c12 (stereo not drawn)
MIC [1]: 0.03 µg/mL
MIC [2]: 0.03 µg/mL
MIC [3]: 0.03 µg/mL

Compound: CO/N=C1/C(=O)N(Cc2cn(CC(=O)N3CCN(c4c(F)cc5c(=O)c(C(=O)O)cn(C6CC6)c5c4OC)CC3C)nn2)c2ccccc21 (stereo not drawn)
MIC [1]: 0.03 µg/mL
MIC [2]: 0.03 µg/mL
MIC [3]: 0.03 µg/mL

Compound: COc1c(N2CCN(C(=O)Cn3cc(CN4C(=O)/C(=N/O)c5ccccc54)nn3)C(C)C2)c(F)cc2c(=O)c(C(=O)O)cn(C3CC3)c12 (stereo not drawn)
MIC [1]: 0.03 µg/mL
MIC [2]: 0.03 µg/mL
MIC [3]: 0.03 µg/mL

Compound: Cc1cc(=O)oc2cc(OCc3cn(-c4ccc(N5CCOCC5)c(F)c4)nn3)ccc12
MIC [9]: 25 µg/mL (≈ 57.3 µM)
MIC [10]: 25 µg/mL (≈ 57.3 µM)
MIC [11]: 50 µg/mL (≈ 115 µM)

Compound: COc1c(N2CCN(C(=O)Cn3cc(CN4C(=O)C(=O)c5cccc(F)c54)nn3)C(C)C2)c(F)cc2c(=O)c(C(=O)O)cn(C3CC3)c12 (stereo not drawn)
MIC [1]: 0.03 µg/mL
MIC [2]: 0.03 µg/mL
MIC [3]: 0.03 µg/mL

Compound: COc1c(N2CCNC(C)C2)c(F)cc2c(=O)c(C(=O)O)cn(C3CC3)c12 (stereo not drawn) [GATIFLOXACIN]
MIC [1]: 0.12 µg/mL
MIC [2]: 0.12 µg/mL
MIC [3]: 0.12 µg/mL

Compound: CC1(C)S[C@@H]2[C@H](NC(=O)Cc3ccccc3)C(=O)N2[C@H]1C(=O)O [PENICILLIN G]
MIC [9]: 1.56 µg/mL (≈ 4.67 µM)
MIC [10]: 3.12 µg/mL (≈ 9.33 µM)
MIC [11]: 1.56 µg/mL (≈ 4.67 µM)

Compound: CN[C@@H]1[C@H](O[C@H]2[C@H](O[C@H]3[C@H](O)[C@@H](O)[C@H](N=C(N)N)[C@@H](O)[C@@H]3N=C(N)N)O[C@@H](C)[C@]2(O)C=O)O[C@@H](CO)[C@H](O)[C@H]1O [STREPTOMYCIN]
MIC [9]: 6.25 µg/mL (≈ 10.7 µM)
MIC [10]: 3.12 µg/mL (≈ 5.36 µM)
MIC [11]: 6.25 µg/mL (≈ 10.7 µM)

Next, values leading:

MIC [4]: 6 µM
MIC [5]: 6 µM (≈ 3.15 µg/mL)
MIC [6]: 6 µM
MIC [7]: 6 µM (≈ 3.15 µg/mL)
MIC [8]: 6 µM
Compound: O=C(NCc1cn(CCCCn2cc(CNC(=O)Nc3ccc(F)cc3)nn2)nn1)Nc1ccc(F)cc1

MIC [4]: 6 µM
MIC [5]: 6 µM (≈ 3.26 µg/mL)
MIC [6]: 6 µM
MIC [7]: 6 µM (≈ 3.26 µg/mL)
MIC [8]: 6 µM
Compound: O=C(NCc1cn(CCCn2cc(CNC(=O)Nc3ccc(Cl)cc3)nn2)nn1)Nc1ccc(Cl)cc1

MIC [9]: 50 µg/mL (≈ 123 µM)
MIC [10]: 25 µg/mL (≈ 61.7 µM)
MIC [11]: 25 µg/mL (≈ 61.7 µM)
Compound: Fc1cc(-n2cc(COc3cccc4cccnc34)nn2)ccc1N1CCOCC1

MIC [4]: 6 µM
MIC [5]: 6 µM (≈ 3.34 µg/mL)
MIC [6]: 6 µM
MIC [7]: 6 µM (≈ 3.34 µg/mL)
MIC [8]: 6 µM
Compound: O=C(NCc1cn(CCCCn2cc(CNC(=O)Nc3ccc(Cl)cc3)nn2)nn1)Nc1ccc(Cl)cc1

MIC [4]: 6 µM
MIC [5]: 6 µM (≈ 3.23 µg/mL)
MIC [6]: 6 µM
MIC [7]: 6 µM (≈ 3.23 µg/mL)
MIC [8]: 6 µM
Compound: O=C(NCc1cn(CCCCCn2cc(CNC(=O)Nc3ccc(F)cc3)nn2)nn1)Nc1ccc(F)cc1

MIC [9]: 6.25 µg/mL (≈ 14.8 µM)
MIC [10]: 12.5 µg/mL (≈ 29.5 µM)
MIC [11]: 12.5 µg/mL (≈ 29.5 µM)
Compound: Fc1cc(-n2cc(COc3cc(Cl)cc(Cl)c3)nn2)ccc1N1CCOCC1

MIC [4]: 6 µM
MIC [5]: 6 µM (≈ 3.29 µg/mL)
MIC [6]: 6 µM
MIC [7]: 5 µM (≈ 2.74 µg/mL)
MIC [8]: 6 µM
Compound: COc1ccc(NC(=O)NCc2cn(CCCCn3cc(CNC(=O)Nc4ccc(OC)cc4)nn3)nn2)cc1

MIC [9]: 25 µg/mL (≈ 59.3 µM)
MIC [10]: 3.12 µg/mL (≈ 7.4 µM)
MIC [11]: 25 µg/mL (≈ 59.3 µM)
Compound: O=C(OCc1cn(-c2ccc(N3CCOCC3)c(F)c2)nn1)c1cc2ccccc2[nH]1

MIC [9]: 12.5 µg/mL (≈ 33.6 µM)
MIC [10]: 6.25 µg/mL (≈ 16.8 µM)
MIC [11]: 3.12 µg/mL (≈ 8.38 µM)
Compound: Fc1ccccc1OCc1cn(-c2ccc(N3CCOCC3)c(F)c2)nn1

MIC [9]: 3.12 µg/mL (≈ 8.38 µM)
MIC [10]: 3.12 µg/mL (≈ 8.38 µM)
MIC [11]: 1.56 µg/mL (≈ 4.19 µM)
Compound: Fc1ccc(OCc2cn(-c3ccc(N4CCOCC4)c(F)c3)nn2)cc1

MIC [4]: 6 µM
MIC [5]: 6 µM (≈ 3.38 µg/mL)
MIC [6]: 6 µM
MIC [7]: 6 µM (≈ 3.38 µg/mL)
MIC [8]: 6 µM
Compound: COc1ccc(NC(=O)NCc2cn(CCCCCn3cc(CNC(=O)Nc4ccc(OC)cc4)nn3)nn2)cc1

MIC [4]: 6 µM
MIC [5]: 6 µM (≈ 3.43 µg/mL)
MIC [6]: 6 µM
MIC [7]: 6 µM (≈ 3.43 µg/mL)
MIC [8]: 6 µM
Compound: O=C(NCc1cn(CCCCCn2cc(CNC(=O)Nc3ccc(Cl)cc3)nn2)nn1)Nc1ccc(Cl)cc1

MIC [9]: 25 µg/mL (≈ 64.3 µM)
MIC [10]: 50 µg/mL (≈ 129 µM)
MIC [11]: 25 µg/mL (≈ 64.3 µM)
Compound: Fc1cc(-n2cc(COc3cccc(Cl)c3)nn2)ccc1N1CCOCC1

MIC [9]: 50 µg/mL (≈ 98.7 µM)
MIC [10]: 50 µg/mL (≈ 98.7 µM)
MIC [11]: 25 µg/mL (≈ 49.4 µM)
Compound: Fc1cc(-n2cc(CSc3nc4cc(Br)ccc4s3)nn2)ccc1N1CCOCC1

MIC [4]: 6 µM
MIC [5]: 6 µM (≈ 3.21 µg/mL)
MIC [6]: 6 µM
MIC [7]: 6 µM (≈ 3.21 µg/mL)
MIC [8]: 6 µM
Compound: COc1ccc(NC(=O)NCc2cn(CCCn3cc(CNC(=O)Nc4ccc(OC)cc4)nn3)nn2)cc1

MIC [4]: 6 µM
MIC [5]: 6 µM (≈ 3.06 µg/mL)
MIC [6]: 6 µM
MIC [7]: 6 µM (≈ 3.06 µg/mL)
MIC [8]: 6 µM
Compound: O=C(NCc1cn(CCCn2cc(CNC(=O)Nc3ccc(F)cc3)nn2)nn1)Nc1ccc(F)cc1

MIC [9]: 12.5 µg/mL (≈ 27.2 µM)
MIC [10]: 25 µg/mL (≈ 54.4 µM)
MIC [11]: 6.25 µg/mL (≈ 13.6 µM)
Compound: Fc1cc(-n2cc(CN3c4ccccc4Sc4ccccc43)nn2)ccc1N1CCOCC1

MIC [9]: 50 µg/mL (≈ 118 µM)
MIC [10]: 25 µg/mL (≈ 59.2 µM)
MIC [11]: 25 µg/mL (≈ 59.2 µM)
Compound: O=c1cc(OCc2cn(-c3ccc(N4CCOCC4)c(F)c3)nn2)c2ccccc2o1

MIC [9]: 1.56 µg/mL (≈ 3.67 µM)
MIC [10]: 25 µg/mL (≈ 58.8 µM)
MIC [11]: 6.25 µg/mL (≈ 14.7 µM)
Compound: O=C1CSc2ccccc2N1Cc1cn(-c2ccc(N3CCOCC3)c(F)c2)nn1
